Test results from patent publication US4565865A, “Phospholipid carbamates” (Takeda Chemical Industries, Ltd., priority 1980, dated 1986).
In brackets after ≈: the same amount, converted by molar mass. Like-named read-outs stand apart in the source and are kept apart here.

How the values were obtained:
Type in all cases: cell-based
[1] = test system: Cryptococcus neoformans; assay: Antifungal activity, paper disc zone of inhibition; details: 37° C., 2 days, agar, 8 mm paper disc, 2 mg/ml solution; for zone of inhibition at 2000 µg/mL: Cryptococcus neoformans, 48 h
Experimental: For the antifungal activity data given in Table 1, Cryptococcus neoformans is used as the test microorganism and incubated at 37° C. for 2 days in an agar medium with a paper disc (8 mm in diameter) immersed in an aqueous 2 mg/ml solution of a test compound and air-dried as placed on said medium, and the zone of inhibition is measured. The judgement criteria are as follows: "-" means less than 9 mm in inhibition zone diameter, "±" means 9-11 mm, "+" means 12-20 mm, and "++" means more than 20 mm.

[2] = test system: Tetrahymena pyriformis W; assay: Antiprotozoal activity, MIC by serial broth dilution technique; details: 28° C., 44-48 hours, tryptose peptone medium, pH 7.0; for MIC: Tetrahymena pyriformis
[3] = test system: Cochliobolus miyabeanus; assay: Antifungal activity, MIC by serial dilution in agar; details: Bipolaris oryzae
[4] = test system: Rauscher virus-induced promyelocytic leukemia cells R 453; assay: Growth inhibition (GD50) of Rauscher virus-induced leukemia R 453 cells; details: Mus musculus
[5] = test system: Leptosphaeria salvinii; assay: Antifungal activity, MIC by serial dilution in agar; details: Nakataea oryzae
[6] = test system: Pyricularia oryzae; assay: microbe, parasite or virus in culture
[7] = test system: mouse spontaneous myelolid leukemia M1 cells (resistant clone); assay: Growth inhibition (GD50) of mouse leukemia M1 cells
[8] = test system: Brewer's yeast; assay: Antifungal activity, MIC by serial dilution in agar
[9] = test system: human promyelocytic leukemia cells HL-60; assay: Growth inhibition (GD50) of human promyelocytic leukemia HL-60 cells
[10] = test system: Botrytis cinerea; assay: Antifungal activity, MIC by serial dilution in agar; details: 1% glucose bouillon agar
Experimental: (§1) For the antifungal activity data shown in Table 2, various typical plant-disease-causing fungi are used as the test fungi and the minimum inhibitory concentration (MIC) are determined by the serial dilution technique using a 1% glucose bouillon agar medium.

[11] = test system: Penicillium; assay: as above; details: 1% glucose bouillon agar
Experimental: as §1

[12] = test system: Red yeast; assay: as above; details: 1% glucose bouillon agar
Experimental: as §1

[13] = test system: Gibberella fujikuroi; assay: as above; details: Fusarium fujikuroi, 1% glucose bouillon agar
Experimental: as §1

[14] = test system: Aspergillus; assay: as above; details: 1% glucose bouillon agar
Experimental: as §1

[15] = four successive population doublings of untreated cells, trypan blue, mean of four separate experiments

## 3-[8,11,14(Z,Z,Z)-Heptadecatrienylcarbamoyloxy]propyl 2-aminoethyl phosphate [Example 18]
[1]
  Cryptococcus neoformans Zone of inhibition: + (12-20 mm)
[2]
  Tetrahymena pyriformis W MIC: 2 to 4 µg/mL

## CCCCCCCCCCCCCCCCCNC(=O)OCCCOP(=O)([O-])OCC[N+](C)(C)C [Example 4, 3-(N-n-Heptadecylcarbamoyloxy)propyl 2-trimethylammonioethyl phosphate]
[3]
  MIC: > 100 µg/mL
[4]
  IC50: 2 to 3 µg/mL
[5]
  MIC: 50 µg/mL
[6]
  MIC: 6.25 µg/mL
[1]
  zone of inhibition at 2000 µg/mL: 12 to 20 mm
[7]
  IC50: 3 to 4 µg/mL
[8]
  MIC: > 100 µg/mL
[9]
  IC50: 1 µg/mL
[2]
  MIC: 1 to 2 µg/mL
[10]
  MIC: 12.5 µg/mL
[11]
  MIC: > 100 µg/mL
[12]
  MIC: > 100 µg/mL
[13]
  MIC: > 100 µg/mL
[14]
  MIC: > 100 µg/mL

## COC1=C(OC)C(=O)C(CCCCCCCCCNC(=O)OCCCOP(=O)([O-])OCC[N+](C)(C)C)=C(C)C1=O [Example 8, 3-[N-(9-(2,3-Dimethoxy-6-methyl-1,4-benzoquinon-5-yl)nonyl)carbamoyloxy]propyl 2-trimethylammonioethyl phosphate]
[2]
  MIC: 40 µg/mL

## CCCCCCCCCCCCCCCCCCNC(=O)OCC(COP(=O)([O-])OCC[N+](C)(C)C)OC (stereo not drawn) [Example 11, 3-(N-n-Octadecylcarbamoyloxy)-2-methoxypropyl 2-trimethylammonioethyl phosphate]
[1]
  zone of inhibition at 2000 µg/mL: 12 to 20 mm
[9]; [15]
  IC50: 0.6 µg/mL
[2]
  MIC: 2 to 4 µg/mL

## CCCCCCCCCCCCCCCCCCNC(=O)OCC(COP(=O)([O-])OCC[n+]1ccccc1)OC (stereo not drawn) [Example 12, 3-(N-n-Octadecylcarbamoyloxy)-2-methoxypropyl 2-pyridinioethyl phosphate]
[1]
  zone of inhibition at 2000 µg/mL: 12 to 20 mm
[9]; [15]
  IC50: 1 µg/mL
[2]
  MIC: 4 µg/mL

## CCCCCCCCCCCCCCCCCCNC(=O)OCC(COP(=O)([O-])OCC[n+]1ccsc1)OC (stereo not drawn) [Example 13, 3-(N-n-Octadecylcarbamoyloxy)-2-methoxypropyl 2-thiazolioethyl phosphate]
[1]
  zone of inhibition at 2000 µg/mL: 12 to 20 mm
[2]
  MIC: 2 to 4 µg/mL

## CCCCCCCCCCCCCCCCCCNC(=O)OCCOP(=O)([O-])OCC[N+](C)(C)C [Example 15, 2-(N-Octadecylcarbamoyloxy)ethyl 2-trimethylammonioethyl phosphate]
[1]
  zone of inhibition at 2000 µg/mL: 12 to 20 mm
[9]; [15]
  IC50: 2.3 µg/mL
[2]
  MIC: 1 to 2 µg/mL

## CCC=CCC=CCC=CCCCCCCCNC(=O)OCCCOP(=O)([O-])OCC[N+](C)(C)C [Example 17, 3-(N-8,11,14-Heptadecatrienylcarbamoyloxy)propyl 2-trimethylammonioethyl phosphate]
[3]
  MIC: 25 µg/mL
[5]
  MIC: 50 µg/mL
[6]
  MIC: 25 µg/mL
[1]
  zone of inhibition at 2000 µg/mL: > 20 mm
[8]
  MIC: 100 µg/mL
[9]; [15]
  IC50: 2 µg/mL
[2]
  MIC: ≤ 1 µg/mL
[10]
  MIC: 12.5 µg/mL
[11]
  MIC: 50 µg/mL
[12]
  MIC: 100 µg/mL
[13]
  MIC: 50 µg/mL
[14]
  MIC: 50 µg/mL

## CCCCC/C=C\C/C=C\CCCCCCCNC(=O)OCCCOP(=O)([O-])OCC[N+](C)(C)C [Example 20]
[1]
  zone of inhibition at 2000 µg/mL: 12 to 20 mm
[9]; [15]
  IC50: 4.8 µg/mL (≈ 9.25 µM)
[2]
  MIC: 2 µg/mL (≈ 3.86 µM)

## CCCCC/C=C\C/C=C\CCCCCCCNC(=O)OCCOP(=O)([O-])OCC[N+](C)(C)C [Example 21, 2-[8,11(Z,Z)-Heptadecadienylcarbamoyloxy]ethyl 2-trimethylammonioethyl phosphate]
[1]
  zone of inhibition at 2000 µg/mL: 9 to 11 mm
[2]
  MIC: 2 µg/mL

## CCCCC/C=C\C/C=C\CCCCCCCNC(=O)OCCCOP(=O)(O)OCCN [Example 22, 3-[8,11(Z,Z)-Heptadecadienylcarbamoyloxy]propyl 2-aminoethyl phosphate]
[1]
  zone of inhibition at 2000 µg/mL: 9 to 11 mm
[9]; [15]
  IC50: 4.3 µg/mL
[2]
  MIC: ≤ 1 µg/mL

## CCCCCCCCCCCCCNC(=O)OCCCOP(=O)([O-])OCC[N+](C)(C)C [Example 23, 3-(N-Tridecylcarbamoyloxy)propyl 2-trimethylammonioethyl phosphate]
[3]
  MIC: 12.5 µg/mL
[5]
  MIC: 12.5 µg/mL
[6]
  MIC: 6.25 µg/mL
[1]
  zone of inhibition at 2000 µg/mL: 12 to 20 mm
[8]
  MIC: 12.5 µg/mL
[2]
  MIC: ≤ 0.1 µg/mL
[10]
  MIC: 6.25 µg/mL
[11]
  MIC: 12.5 µg/mL
[12]
  MIC: 12.5 µg/mL
[13]
  MIC: 25 µg/mL
[14]
  MIC: 12.5 µg/mL

## CCCCCCCCCCCCCCNC(=O)OCC(COP(=O)(O)OCCN)OC (stereo not drawn) [Example 25, 3-(N-Tetradecylcarbamoyloxy)-2-methoxypropyl 2-aminoethyl phosphate]
[3]
  MIC: > 100 µg/mL
[5]
  MIC: 100 µg/mL
[6]
  MIC: 6.25 µg/mL
[1]
  zone of inhibition at 2000 µg/mL: > 20 mm
[8]
  MIC: 25 µg/mL
[9]
  IC50: 2 to 3 µg/mL
[2]
  MIC: ≤ 1 µg/mL
[10]
  MIC: 6.25 µg/mL
[11]
  MIC: 25 µg/mL
[12]
  MIC: 50 µg/mL
[13]
  MIC: 50 µg/mL
[14]
  MIC: 25 µg/mL

## CCCCCCCCCCCCCCNC(=O)OCC(COP(=O)([O-])OCC[N+](C)(C)C)OC (stereo not drawn) [Example 26, 3-(N-Tetradecylcarbamoyloxy)-2-methoxypropyl 2-trimethylammonioethyl phosphate]
[3]
  MIC: 12.5 µg/mL
[5]; Leptosphaeria salvinii, 1% glucose bouillon agar, read-out: MIC
  MIC: 6.25 µg/mL
[6]
  MIC: 3.12 µg/mL
[1]
  zone of inhibition at 2000 µg/mL: 12 to 20 mm
[8]; Brewer's yeast, 1% glucose bouillon agar, read-out: MIC
  MIC: 6.25 µg/mL
[9]
  IC50: 2 to 3 µg/mL
[2]
  MIC: 0.2 µg/mL
[10]
  MIC: 3.12 µg/mL
[11]
  MIC: 12.5 µg/mL
[12]
  MIC: 25 µg/mL
[13]
  MIC: 12.5 µg/mL
[14]
  MIC: 12.5 µg/mL

## CCCCCCCCCCNC(=O)OCC(COP(=O)(O)OCCN)OC (stereo not drawn) [Example 28, 3-(N-Decylcarbamoyloxy)-2-methoxypropyl 2-aminoethyl phosphate]
[1]
  zone of inhibition at 2000 µg/mL: < 9 mm
[2]
  MIC: 2 µg/mL

## CCCCCCCCCCNC(=O)OCC(COP(=O)([O-])OCC[N+](C)(C)C)OC (stereo not drawn) [Example 29, 3-(N-Decylcarbamoyloxy)-2-methoxypropyl 2-trimethylammonioethyl phosphate]
[1]
  zone of inhibition at 2000 µg/mL: 9 to 11 mm
[2]
  MIC: 2 µg/mL

## CCCCCCCCCCCCNC(=O)OCCCOP(=O)([O-])OCC[N+](C)(C)C [Example 31, 3-N-Dodecylcarbamoyloxypropyl 2-trimethylammonioethyl phosphate]
[3]
  MIC: 12.5 µg/mL
[5]
  MIC: 25 µg/mL
[6]
  MIC: 12.5 µg/mL
[1]
  zone of inhibition at 2000 µg/mL: 12 to 20 mm
[8]
  MIC: 12.5 µg/mL
[2]
  MIC: ≤ 1 µg/mL
[10]
  MIC: 12.5 µg/mL
[11]
  MIC: 12.5 µg/mL
[12]
  MIC: 25 µg/mL
[13]
  MIC: 50 µg/mL
[14]
  MIC: 12.5 µg/mL

## CCCCCCCCCCCCNC(=O)OCCCOP(=O)(O)OCCN [Example 32]
[1]
  zone of inhibition at 2000 µg/mL: 12 to 20 mm
[2]
  MIC: ≤ 1 µg/mL

## CCCCCCCCCCCCCCNC(=O)OCCCOP(=O)([O-])OCC[N+](C)(C)C [Example 36, 3-N-Tetradecylcarbamoyloxypropyl 2-trimethylammonioethyl phosphate]
[3]
  MIC: 25 µg/mL
[5]
  MIC: 6.25 µg/mL
[6]
  MIC: 3.12 µg/mL
[1]
  zone of inhibition at 2000 µg/mL: > 20 mm
[8]
  MIC: 6.25 µg/mL
[2]
  MIC: ≤ 1 µg/mL
[10]
  MIC: 12.5 µg/mL
[11]
  MIC: 12.5 µg/mL
[12]
  MIC: 25 µg/mL
[13]
  MIC: 12.5 µg/mL
[14]
  MIC: 12.5 µg/mL
